The text below walks through data of publication PMC10302187, “WssI from the Gram-negative bacterial cellulose synthase is an O-acetyltransferase that acts on cello-oligomers with several acetyl donor substrates” (The Journal of Biological Chemistry, 2023).

Each structure is given as a SMILES string.

Assay [1] has as its target T1, AiWssI^ΔN (Achromobacter insuavis, UniProt A0A6J5I893). Description: HTS MU-Ac fluorescence esterase dose-response assay. The assay is classed as biochemical. Conditions: MU-Ac as esterase substrate. The procedure: Large-scale HTS was conducted at the SPARC BioCentre Drug Discovery (Hospital for Sick Children, Toronto, Canada) with a subset of the Chembridge DIVERset library collection (as well as 135 manually selected compounds based on success against other SGNH enzymes) in a 384-well format. The assay was performed in singlet during the primary screen of the entire compound list and in triplicate for a follow-up confirmatory screen. Reaction setups for both screens were conducted with 50 mM sodium phosphate buffer (pH 6.5), 3 μM AiWssI^ΔN and 0.5 mM MU-Ac (final concentration of 5% [v/v] dimethyl sulfoxide) using a Thermo MultiDrop Combi Reagent Dispenser. The reaction was initiated by the addition of 20 μM of the test compounds using an Echo 550 acoustic dispenser (Labcyte). Fluorescence was monitored with a SynergyNeo microplate reader (BioTek) using excitation and emission wavelengths of 365 and 450 nm, respectively, for approximately 45 min alongside appropriate negative and positive controls. […] The hits remaining after the primary and confirmatory screening were examined further to identify possible PAINS, which could result in false-positive results ([91]). Further refinement of the lead candidates was also conducted by assessing the fluorescence quenching potential of lead compound hits by assaying the quenching potential of different compound concentrations (10.1 μM and/or 50.5 μM) against the fluorescence of 4-methylumbeliferone (247 μM) to reveal any potential false positives that were not actually because of AiWssI^ΔN activity. All fluorescence readings were normalized using the following equation to determine the percentage of quenching ([92]): NormalizedFlouresence=Fobs−μFmin/μFmax−μFminx100% In the aforementioned formula, Fobs is the sample fluorescence value, μFmin is the mean fluorescence value of the negative controls, and μFmax is the mean fluorescence value of the positive controls.
(§1) All inhibitor compounds for confirmatory assays were purchased from Enamine Ltd, with the exception of compound 1 (Santa Cruz Biotechnology, Inc), Compounds 2 and 7 (Molport via Maybridge Ltd and Vitas M Chemical Ltd, respectively) and compound 6 (Mcule, Inc). The dose–response curves were generated using either CDD Vault Analysis Software (Collaborative Drug Discovery, Inc) or GraphPad Prism, version 8.4.3. Inhibition constants (Ki) were calculated using the Cheng–Prusoff equation for competitive inhibition that is calculated using the KM of the uninhibited enzyme, the substrate concentration (S) at which the IC50 values were calculated, and the IC50 value of the inhibitor ([92]): Ki=IC50/(S/KM+1)

Assay [2] has as its target T1, AiWssI^ΔN. Description: Follow-up standard MU-Ac esterase assay (dose-response). The assay is classed as biochemical. As to the method:
The fluorescence substrate, MU-Ac, was also tested as a substrate of WssI^ΔN for its amenability to the planned high-throughput analyses (see later). Reaction setups were exactly the same as that for pNP-Ac, with the exceptions of the assay buffer (50 mM sodium phosphate, 150 mM NaCl, 1 mM DTT, pH 7), MU-Ac as the acetyl donor (final concentration of 0.5 mM along with 5% [v/v] dimethyl sulfoxide, as this was the solvent for MU-Ac), and the assay was performed in fluorescence compatible microplates (Grenier BioOne) and monitored with excitation and emission wavelengths of 365 and 450 nm, respectively for 60 min.
as §1

The target of assay [3] is serine/threonine phosphatase calcineurin. On the set-up: method as in PMID 9763224. Conditions: p-nitrophenyl phosphate as a substrate; cited from earlier work.
A further assay addresses T2, PfWssI^ΔN (Pseudomonas fluorescens, UniProt Q8RSY4).
T2 sequence (Q8RSY4 92-374): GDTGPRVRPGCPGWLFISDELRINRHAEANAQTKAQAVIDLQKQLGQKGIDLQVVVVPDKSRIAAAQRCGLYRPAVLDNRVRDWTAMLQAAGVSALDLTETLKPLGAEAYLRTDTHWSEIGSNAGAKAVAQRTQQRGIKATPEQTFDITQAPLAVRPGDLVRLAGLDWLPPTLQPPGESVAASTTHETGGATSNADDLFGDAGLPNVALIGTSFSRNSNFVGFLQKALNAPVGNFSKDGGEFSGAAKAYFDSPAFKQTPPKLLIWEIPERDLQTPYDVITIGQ
Type of assay: biochemical. As to conditions: 1 h incubation with reagent (1 mM PMSF, 5 mM MSF, 5 mM EDTA, 0.1 mM E-64, 20 μM Pepstatin A); 6 mM pNP-Ac, pH 7. As to the method: (§2) The enzymatic rate of the WssI^ΔN proteins was measured using chromogenic assays in a 50 mM sodium phosphate-buffered (pH 7) solution, with WssI^ΔN (3 μM unless specified otherwise) and were initiated by the addition of pNP-Ac to a final concentration of 6 mM (dissolved in 5% [v/v] ethanol). Assay samples and corresponding controls (i.e., containing no WssI^ΔN and/or substrate) were run in quadruplicate, and the progress of the reaction was monitored at 405 nm (Cytation5) for 30 min in 1 min intervals following a 5 s initial linear shake to mix contents thoroughly. These conditions were deemed standard assay conditions for subsequent trials except where modifications are noted. The activity assay to determine optimal pH and buffer type was performed with 2-(N-morpholino)ethanesulfonic acid over pH ranges of 5.5 to 6.5, sodium phosphate for pH 6.5 to 7.5, and Tris for the final range of 7.5 to 9.25. In addition, standard assay conditions were modified by incorporating various inhibitors and common reducing agents to determine effects on WssI^ΔN activity. […] To test the effects of the absence of DTT, trials were conducted where DTT was removed from all purification and dialysis buffers, unless mentioned otherwise. Data are either reported in specific activity as units of esterase activity (i.e., the amount of enzyme required to release 1 μmol of p-nitrophenol per min^−1 per mg of protein^−1) or as percent residual activity when compared with the WssI^ΔN controls (i.e., containing no inhibitors).

Assay [4] deals with T1, AiWssI^ΔN. Type of assay: biochemical. As to conditions: 1 h incubation with reagent (1 mM PMSF, 5 mM MSF, 5 mM EDTA, 0.1 mM E-64, 20 μM Pepstatin A); 6 mM pNP-Ac, pH 7. The procedure:
as §2

T1 sequence (A0A6J5I893 entry or part of it, stated change not applied): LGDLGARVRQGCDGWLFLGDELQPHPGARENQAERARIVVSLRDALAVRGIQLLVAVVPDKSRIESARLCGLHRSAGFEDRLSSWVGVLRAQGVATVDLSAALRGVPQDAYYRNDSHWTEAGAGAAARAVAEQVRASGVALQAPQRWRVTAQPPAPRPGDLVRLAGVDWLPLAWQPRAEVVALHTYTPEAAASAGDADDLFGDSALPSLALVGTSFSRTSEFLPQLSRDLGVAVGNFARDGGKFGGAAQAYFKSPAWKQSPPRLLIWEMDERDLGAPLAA

For orientation: IC50 means the midpoint of a concentration-inhibition curve. The Ki is a measure of affinity in units of concentration, obtained from inhibition or displacement. In the case of `N#CC(C#N)=C(N)/C(C#N)=C/c1ccc(O)cc1` [Compound 1, (3Z)-2-Amino-3-[(4-hydroxyphenyl)-methylidene]prop-1-ene-1,1,3-tricarbonitrile], the half-inhibitory concentration (IC50) was 10.1 µM at AiWssI^ΔN [1]; 28.4 µM at AiWssI^ΔN [2] (MU-Ac (0.5 mM) as esterase substrate, read-out: Second MU-Ac IC50); 30 µM in assay [3]. Besides, the inhibition constant Ki on AiWssI^ΔN [2] (MU-Ac as esterase substrate, Cheng-Prusoff, competitive inhibition, read-out: Second MU-Ac Ki) was 15.1 µM.
With `CC(C)C[C@H](NC(=O)[C@H]1O[C@@H]1C(=O)O)C(=O)NCCCCN=C(N)N` [E-64], the “Residual activity PfWssI^ΔN” value at PfWssI^ΔN is listed as 107.8 ± 10.8%. Further, the “Residual activity AiWssI^ΔN” value at AiWssI^ΔN [4] is 130.8 ± 9.1%.
For `CS(=O)(=O)F` [MSF, methanesulfonyl fluoride], in that order: 112.1 ± 4.4% and 95.0 ± 6.2%.
The matching figures for `O=S(=O)(F)Cc1ccccc1` [PMSF]: 103.2 ± 4.2% and 106.3 ± 6.8%.
